{
  "source": "PubChem BioAssay AID624491",
  "about": "(Broad Institute, 2012)",
  "data": [
    {"system": "D54 ERlucT glycosylation luciferase reporter, luminescence, 24 h", "assay": "N-linked glycosylation inhibitors, luciferase reporter, dose response, D54 ERlucT cells, luminescence, cherry-picks (AID 624491);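 note: signal gain reflects blocked N-linked glycosylation of a luciferase reporter; actives raise luciferase signal so AC26 marks activators of the reporter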", "units": {"AC26": "nM"}, "values": [
      {"smiles": "OCCCCCN=c1cc(-c2ccccc2)oc2ccc(Cl)cc12", "AC26": 1970},
      {"smiles": "COc1ccc(CCn2c(=N)c(C(=O)NCCN3CCOCC3)cc3c(=O)n4cccc(C)c4nc32)cc1OC", "AC26": 739},
      {"smiles": "CCOc1ccccc1N1CCN(C(=O)c2cc3ccccc3cc2OC)CC1", "AC26": 3440},
      {"smiles": "Cc1nc2c3cc(F)ccc3n(Cc3ccc(F)cc3)c2s1", "AC26": 11500},
      {"smiles": "Cc1ccc(Nc2nnc(SCC(=O)Nc3ncc(S(=O)(=O)c4ccc([N+](=O)[O-])cc4)s3)s2)cc1", "AC26": 9030},
      {"smiles": "COc1ccc(OC)c(-c2cc(-c3cccnc3)nc(N)c2C#N)c1", "AC26": 2230},
      {"smiles": "Cc1ccc(-n2nc(C)c(/C=N/NC(=O)c3cccs3)c2Cl)cc1", "AC26": 4230},
      {"smiles": "Cc1ccccc1OCCc1c(C)[nH]c(=S)[nH]c1=O", "AC26": 1700},
      {"smiles": "CN(C)c1ccc(C(C[N+](=O)[O-])c2c(N)n(C)c(=O)n(C)c2=O)c(F)c1C#N", "note": "(centres undefined)", "AC26": 3300},
      {"smiles": "C[C@@]12C(=O)Nc3cc(F)c(F)cc3C(=O)N1[C@H]1c3cc(Cl)ccc3OC[C@@H]1[C@@H]2c1ccccc1", "AC26": 789},
      {"smiles": "COc1cccc(C(NC(C)=O)c2nc(-c3ccccc3OC)cs2)c1", "note": "(centres undefined)", "AC26": 452},
      {"smiles": "Cc1ccc(/C=N/NC(=O)c2sccc2OCc2ccc(F)cc2)cc1", "AC26": 2440},
      {"smiles": "CC1CN(c2nc(-c3ccccc3)nnc2-c2ccccc2)CC(C)O1", "note": "(centres undefined)", "AC26": 368},
      {"smiles": "CCN(CC)S(=O)(=O)c1cc(NC(=O)Cn2ncc(Cl)c(Cl)c2=O)ccc1C", "AC26": 1030},
      {"smiles": "COc1ccc(-c2nn(C)c(=O)c3ccccc23)cc1NS(C)(=O)=O", "AC26": 4620},
      {"smiles": "NNC(=O)c1oc2nc(-c3cccs3)cc(-c3ccco3)c2c1N", "AC26": 2640},
      {"smiles": "Cn1cccc1/C=C1\\SC(=Nc2cccc(O)c2)NC1=O", "AC26": 2850},
      {"smiles": "C=CCn1c(SCc2c(C)noc2C)nc2sc3c(c2c1=O)CCC(C)C3", "note": "(centres undefined)", "AC26": 2060},
      {"smiles": "CC(C)Oc1ccc(C(=O)/C=C2/C(=O)Nc3ccccc32)cc1", "AC26": 3230},
      {"smiles": "COc1cc2nc(N(C)C)nc(N)c2cc1OC", "AC26": 3660},
      {"smiles": "COc1cc(C(=O)NC2CCN(C)CC2)ccc1Nc1ncc2c(n1)N(CCc1ccccc1)CCC(=O)N2C", "AC26": 396},
      {"smiles": "COc1cc(C2C(C#N)=C(N)Oc3cc(O)ccc32)cc(OC)c1OC", "note": "(centres undefined)", "AC26": 1020},
      {"smiles": "CCCOc1ccccc1C1CC(=O)NC2=C1C(=O)CCC2", "note": "(centres undefined)", "AC26": 2250},
      {"smiles": "COc1cc(COCC(O)CN2CCN(CCN3C(=O)c4cccc5cccc(c45)C3=O)CC2)cc(OC)c1OC", "note": "(centres undefined)", "AC26": 1230},
      {"smiles": "Cc1cc(=O)oc2cc(NC(=O)c3cccc(S(C)(=O)=O)c3)ccc12", "AC26": 2310},
      {"smiles": "CC(Nc1nc(-c2cccnc2)nc2ccccc12)c1ccccc1", "note": "(centres undefined)", "AC26": 2830},
      {"smiles": "COc1cccc(OCc2nc3ncc(Br)cc3[nH]2)c1", "AC26": 1810},
      {"smiles": "O=C(CCl)N1CCCC1c1ccc2c(c1)OCCO2", "note": "(centres undefined)", "AC26": 608},
      {"smiles": "C[C@@H](NC(=O)c1ncn2c1c(=O)[nH]c1ccc(Br)cc12)c1ccccc1", "AC26": 2060},
      {"smiles": "COc1nc(=O)n(C2C=CC(=O)O2)cc1F", "note": "(centres undefined)", "AC26": 3200},
      {"smiles": "CC(=O)Nc1cccc(-c2ccnc3c2CC(C)(C(=O)NCc2ccco2)O3)c1", "note": "(centres undefined)", "AC26": 617},
      {"smiles": "Cc1nnc2c(NC3CCCC3)nc3ccccc3n12", "AC26": 5060},
      {"smiles": "O=C(CCl)N1c2ccccc2Sc2c1ccc1ccccc21", "AC26": 257},
      {"smiles": "COc1ccc(Sc2nnc(Cc3ccccc3)c3ccccc23)cc1", "AC26": 2880},
      {"smiles": "C=CCOc1ccc2nc(NC(=O)OC)[nH]c2c1", "AC26": 414},
      {"smiles": "COc1ccc2c(c1)CCc1c(C(=O)Nc3cc(C)n(Cc4ccc(Cl)cc4)n3)noc1-2", "AC26": 3370},
      {"smiles": "COC(=O)c1ccc(C)c(NS(=O)(=O)c2ccc3c(c2)OCCO3)c1", "AC26": 44.7},
      {"smiles": "COc1ccccc1-n1cnc2cc(NCc3ccco3)ccc21", "AC26": 1510},
      {"smiles": "Cc1ccc(/C=N/NC(=O)CCn2nc(C)cc2C)c(C)c1", "AC26": 5510},
      {"smiles": "CC(O)CN=c1cc(-c2ccccc2)oc2ccc(Cl)cc12", "note": "(centres undefined)", "AC26": 1150},
      {"smiles": "O=C(NCCN1C(=O)S/C(=C\\c2ccccc2F)C1=O)C1=COCCO1", "AC26": 52.9},
      {"smiles": "COc1cc(C(=O)NCC(=O)NCCN2C(=O)S/C(=C\\c3ccccc3Cl)C2=O)cc(OC)c1OC", "AC26": 2430},
      {"smiles": "COc1ccc(-c2nc(NCCCN(C)C)c3ccccc3n2)cc1", "AC26": 2490},
      {"smiles": "CC[C@H](C)C(=O)O[C@H]1CCC=C2C=C[C@H](C)[C@H](CC[C@@H]3C[C@@H](O)CC(=O)O3)[C@H]21", "AC26": 180},
      {"smiles": "COc1cc2c(cc1OC)C(c1ccccc1)N(C(=O)c1ccco1)CC2", "note": "(centres undefined)", "AC26": 315},
      {"smiles": "COc1cc2c(cc1OC)C(c1cccs1)N(C(=O)c1ccncc1)CC2", "note": "(centres undefined)", "AC26": 3030},
      {"smiles": "CC1(C(=O)NCCC(F)(F)F)Cc2c(-c3cccc(C(F)(F)F)c3)ccnc2O1", "note": "(centres undefined)", "AC26": 15200},
      {"smiles": "COc1cccc(C2=CC(c3cccc(OC)c3OC)n3nnnc3N2)c1", "note": "(centres undefined)", "AC26": 1300},
      {"smiles": "Cc1ccc2nc3c(cc(C(N)=S)c(=N)n3CCCOC(C)C)c(=O)n2c1", "AC26": 1140},
      {"smiles": "CCN1C(=O)c2cccc3c(S(=O)(=O)N4CCC(C)CC4)ccc1c23", "AC26": 1720},
      {"smiles": "O=C(NCCc1ccccc1)c1cc(-c2ccco2)on1", "AC26": 3780},
      {"smiles": "O=C(C=Cc1ccccc1F)c1ccccc1", "AC26": 3230},
      {"smiles": "O=c1c2ccccc2sc2c(CO)ccc(NCCN3CCCCC3)c12", "AC26": 705},
      {"smiles": "CCN1Cc2c(/C=C/c3ccccc3)nc3ccc(OC)cc3c2N(c2cccc(Cl)c2)C1", "AC26": 14300}
    ]}
  ]
}
